{"source": "patent US20090280984A1", "about": "“Method of Inhibiting the Growth of Algae” (ITEQ CORPORATION, priority 2008, published 2009)", "test_system": "Microcystis aeruginosa", "test": "Inhibition of algal growth, detection of Chlorophyll-a content by spectrometry (absorbance at 665 nm after ethanol extraction)", "assay_type": "cell-based", "procedure": "In the following embodiment, three specimens, chitosan, glucosamine, and the combination of both, were used as inhibitors to inhibit algal growth and their inhibition efficiency was tested as well. In this embodiment, one kind of toxic Cyanobacteria, Microcystis aeruginosa, is used for the inhibition test. Since chlorophyll-a content of algae is widely used as an indicator of the abundance of algae in a freshwater body, the chlorophyll-a content of Microcystis aeruginosa in the sample was detected by spectrometry.\nFirst, four 0.5 ml portions of Microcystis aeruginosa solution were obtained and were labeled as sample I, II, III and IV, respectively, and 49.5 ml of Bold's medium was added to each sample. Next, chitosan, glucosamine, and the combination were added to sample II, III and IV, respectively, so that sample II contains 10 ppm chitosan, and sample III contains 10 ppm glucosamine, and sample IV contains 5 ppm chitosan and 5 ppm glucosamine. Sample I without any chitosan and glucosamine added was used as the control. After that, these four samples were cultured for 14 days. During that time, the Chlorophyll-a content of four samples were detected every 7 days according to the procedures mentioned below.\nA portion of each sample was obtained and centrifuged at 10000 rpm at 20° C. for 15 mins, and then the supernatant was poured out. Next, four 10 ml portions of 95% (v/v) ethanol were added to sample I to IV and mixed with the residues. Next, the solution of each sample was water-bathed in 60° C. water for 30 mins to extract Chlorophyll-a. When being bathed in the water, the solution of each sample was shaken every ten minutes. After that, the solutions were centrifuged at 5000 G at 20° C. for 15 minutes and the supernatants were kept. Then, the absorbance at 665 nm of […] were detected. Finally, according to the “Standard Methods for the Examination Chlorophyll-a in Water-Ethanol Extraction” issued by National Institute of Environmental Analysis, Taiwan (NIEA E508.00B), the absorbance at 665 nm of samples I to IV were calibrated and the concentration of Chlorophyll-a content of each sample was calculated by the absorbance measured.\nBasically, the whole process was the same as mentioned above except the concentration of chitosan and glucosamine in samples, and the Chlorophyll-a content was also detected. The concentration of glucosamine and chitosan contained in each sample and the Chlorophyll-a content detected are show in Table 2."}
{"molecule": "N[C@H]1C(O)O[C@H](CO)[C@@H](O)[C@@H]1O", "note": "(stereo partly drawn) [III, glucosamine]", "values": [{"measurement": "Chlorophyll-a Content", "setting": "Embodiment I, 0th day, Microcystis aeruginosa in Bold's medium", "result": 6.9, "unit": "ppb"}, {"measurement": "Chlorophyll-a Content", "setting": "Embodiment I, 7th day, control (sample I) 278 ppb", "result": 33, "unit": "ppb"}, {"measurement": "Chlorophyll-a Content", "setting": "Embodiment I, 14th day, control (sample I) 2470 ppb", "result": 554, "unit": "ppb"}, {"measurement": "Chlorophyll-a Content", "setting": "Embodiment II, 7th day, Blank 62 ppb, original content 9.7 ppb", "result": 50, "unit": "ppb"}, {"measurement": "Chlorophyll-a Content", "setting": "Embodiment II, 14th day, Blank 418 ppb, original content 9.7 ppb", "result": 124, "unit": "ppb"}, {"measurement": "inhibition of the growth of algae (in words)", "setting": "Microcystis aeruginosa, chlorophyll-a as indicator", "result": "could inhibit the growth of algae"}]}
